From paper PMC7056863, “Development of a CDK10/CycM in vitro Kinase Screening Assay and Identification of First Small-Molecule Inhibitors” (Frontiers in Chemistry, 2020) come the findings set out here.

The target of data set [1] is T1, GST-CDK10/Strep2-CycM (CDK10/CycM) (Homo sapiens, UniProt Q15131).
T1 construct: GST-CDK10 co-expressed with Strep2-CycM (pFastBacDual) in Sf9 cells, glutathione sepharose purified heterodimer, tags kept; with Cyclin-Q
Briefly: ADP-Glo luminescent kinase assay, CDK10tide (Jar1) peptide. The format is biochemical. The source says:
ADP-Glo luminescent kinase assay, CDK10tide (Jar1) peptide on GST-CDK10/Strep2-CycM (CDK10/CycM)
Background: ADP-Glo turns the ADP formed in a reaction into a luminescent signal.

Data set [2] addresses T1, GST-CDK10/Strep2-CycM (CDK10/CycM). Kind of data set: in vitro kinase assay. The format is biochemical. The conditions noted are these: for inhibition at 1 µM: read-out: % inhibition at 1 uM.
Substrate in data set [3]: Nc1ncnc2c1ncn2[C@@H]1O[C@H](COP(=O)(O)OP(=O)(O)OP(=O)(O)O)[C@@H](O)[C@H]1O
Kind of data set: ADP-Glo luminescent kinase assay, ATP titration, Michaelis-Menten. The format is biochemical, Homo sapiens. The conditions noted are these: […] CDK10tide, […] enzyme, […] ATP, […] MgCl2, pH […].

Where [4] appears, read: read-out: CDK10/CycM (measured herein).

Read-outs that look alike come from different tables or passages of the source.

In general, inhibition refers to the drop in the measured response relative to a control, in per cent. The term % inhibition denotes the change of the read-out against control, counted positive when it falls. Read a low % inhibition as a weak effect. Usually Km stands for the substrate concentration at which the rate is half of its maximum.

T1 sequence (Q8N1B3 whole entry partner, one chain of several): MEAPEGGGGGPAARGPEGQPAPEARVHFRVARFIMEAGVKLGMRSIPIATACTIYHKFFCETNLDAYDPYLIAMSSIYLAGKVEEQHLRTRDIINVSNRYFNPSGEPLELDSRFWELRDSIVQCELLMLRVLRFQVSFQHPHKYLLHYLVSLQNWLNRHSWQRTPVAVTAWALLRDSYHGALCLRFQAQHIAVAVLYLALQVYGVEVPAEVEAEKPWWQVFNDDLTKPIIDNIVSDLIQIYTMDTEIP

Take `CC(=O)N[C@@H]1CCC[C@H](C(=O)Nc2cc(-c3cnn4c3CC(C)(C)C4)c(Cl)cn2)C1` [AZD4573]: the IC50 in data set [1] (setting [4]) worked out at 36 nM.

Take `CC[C@H](CO)Nc1nc(NCc2ccc(-c3ccccn3)cc2)c2ncn(C(C)C)c2n1` [CR8]: the inhibition at 1 µM in data set [2] is < 50%.

For `CCc1cnn2c(NCc3ccc[n+]([O-])c3)cc(N3CCCC[C@H]3CCO)nc12` [dinaciclib], in data set [1] (read-out: CDK9/CycT1 (measured herein)), the IC50 is 13 nM.

In the case of `Cn1cnc2c(NCc3ccccc3)nc(NCCO)nc21` [olomoucine], the inhibition at 1 µM in data set [2] is < 50%.

With `CC(=O)c1c(C)c2cnc(Nc3ccc(N4CCNCC4)cn3)nc2n(C2CCCC2)c1=O` [palbociclib], the inhibition at 1 µM in data set [2] is < 50%.

Take `CN1CC[C@H](c2c(O)cc(O)c3c(=O)cc(-c4ccccc4Cl)oc23)[C@H]1CO` [riviciclib]: the IC50 in data set [1] (setting [4]) amounted to 280 nM.

In the case of `CC[C@H](CO)Nc1nc(NCc2ccccc2)c2ncn(C(C)C)c2n1` [roscovitine], in data set [2], the inhibition at 1 µM is < 50%.

On to meriolin, for which the “% inhibition at 1 uM” value in data set [2] (data not shown, text: not greater than […]) is recorded as < 50%.

B1: GST-CDK10/Strep2-CycM (CDK10/CycM) (Homo sapiens) (protein)
chain: MAEPDLECEQIRLKCIRKEGFFTVPPEHRLGRCRSVKEFEKLNRIGEGTYGIVYRARDTQTDEIVALKKVRMDKEKDGIPISSLREITLLLRLRHPNIVELKEVVVGNHLESIFLVMGYCEQDLASLLENMPTPFSEAQVKCIVLQVLRGLQYLHRNFIIHRDLKVSNLLMTDKGCVKTADFGLARAYGVPVKPMTPKVVTLWYRAPELLLGTTTQTTSIDMWAVGCILAELLAHRPLLPGTSEIHQIDLIVQLLGTPSENIWPGFSKLPLVGQYSLRKQPYNNLKHKFPWLSEAGLRLLHFLFMYDPKKRATAGDCLESSYFKEKPLPCEPELMPTFPHHRNKRAAPATSEGQSKRCKP
notes: GST-CDK10 co-expressed with Strep2-CycM (pFastBacDual) in Sf9 cells, glutathione sepharose purified heterodimer, tags kept; with Cyclin-Q
B1: the Michaelis constant (Km) in data set [3] was 177 µM.
